Measurements taken from patent US20250099430A1, “PREVENTION OR TREATMENT OF SLEEP DISORDERS USING DEXMEDETOMIDINE FORMULATION” (BioXcel Therapeutics, Inc., priority 2014, published 2025).
Several values for one entry are separate records, joined by “and”; a condition that tells them apart may be missing. Equal values may be shown once. Entries after “also recorded” stand apart in the source; their conditions may differ.

System: Wistar rats
Experiment: Sleep promoting properties in Wistar rats, video monitoring of home cage activity (total sleep time, latency to sleep, number of sleep episodes)
Type: in vivo
Details: for Total Sleep time: 180 min recording
Description: Sublingual dexmedetomidine formulation of present invention was tested in rats for its ability to increase the amount of sleep or decrease sleep interruption or both without undesired effects. Test animals' activity was continuously monitored by using a video camera overhead and data analysed for latency of sleep, total sleep time and number of sleep episodes by using the NoldusEthovision-XT 11.
Male Wistar rats were approximately of the weight 180 g-220 g and age of about 5-7 weeks old. Animals were numbered and kept in acclimatization for a period of 5-7 days before the initiation of the experiment. All the experiments on animals were conducted in accordance with the guidelines of the Committee for the Purpose of Control and Supervision of Experiments on Animals (CPCSEA), Goveemment of India the Association for Assessment and Accreditation of Laboratory Animal Care intemational (AAALAC).
Recording Environment: Animals were housed group wise (three animals per cage) within a microisolator cage modified with an inserted polycarbonate filter-top riser to allow more vertical headroom. Animals were maintained on the normal rodent chow ad libitum and given free access to fresh autoclaved potable drinking water. Animals were kept in a controlled environmental condition with 22±3° C. temperature, 50±20% humidity, a light dark cycle of 12 hours each and 15-20 fresh air changes per hour.
Animal Groups: Wistar rats were randomly divided into different groups, each containing 6 animals. The study groups were divided as normal control group, vehicle control group, test compound groups and reference compound group.
Animals were weight once at randomization and each day thereafter. The animals were studied from day 1 till day 9. […] On day 3, animals were dosed with test compounds and respiratory parameters such as tidal volume, frequency of respiration: heart rate and blood pressure were recorded. On day 5 and day 6, animals were trained on the rotarod apparatus (4-40 rpm for 300 s). On day 7, animals were administered with test compounds and motor coordination was tested on rotarod at 3, 10, 17, 24 and 30 minutes post administration to establish a temporal scale of loss of motor activity and drowsiness. On day 9, animals were dosed with test compounds and blood was collected at 15, 30, 60 and 120 min post sublingual dosing to estimate plasma drug concentration of dexmedetomidine. All the animals were euthanized by CO2 inhalation on day 9. The animal in the satellite groups was dosed with test compounds and blood was collected on day 0 at 15, 30, 60, and 120 min post sublingual dosing to estimate plasma drug concentration of dexmedetomidine after first drug exposure.
The normal control group received no treatment: vehicle control group received 0.9% saline water; the test group received compound (dexmedetomidine), administered sublingually in different doses (dose 1-5.14 μg/kg of body weight, dose 2-10 μg/kg of body weight, dose 3-20 μg/kg of body weight, dose 4-30 μg/kg of body weight and dose 5-40 μg/kg of body weight) and also administered parenterally (dose 6-1.5 μg kg of body weight); and the reference compound (Zolpidem) was administered orally in dose of 30 mg/kg of body weight. The treatment was given such that no rat received the same treatment twice.
Total sleep time, latency to sleep and number of sleep episodes were measured: After administration of each dose to each group of animal, the latency to sleep, total sleep time and sleep episodes was recorded.
One way ANOVA test was applied for the comparison of the data from different groups for total sleep time, latency to sleep and number of sleep episodes.

[1] = Table 2, Zolpidem (30 mg/kg, p.o.)
[2] = group mean, Zolpidem (30 mg/kg), orally
[3] = individual animals, Zolpidem (30 mg/kg), orally
[4] = Table 2, Dose 1 (5.14 μg/kg, SL)
[5] = Table 2, Dose 6 (1.5 μg/kg, I.V.)
[6] = group mean, Dose 1 (5.14 μg/kg Dexmedetomidine SL)
[7] = group mean, Dose 2 (10 μg/kg Dexmedetomidine SL)
[8] = group mean, Dose 3 (20 μg/kg Dexmedetomidine SL)
[9] = group mean, Dose 4 (30 μg/kg Dexmedetomidine SL)
[10] = group mean, Dose 5 (40 μg/kg Dexmedetomidine SL)
[11] = group mean, Dose 6 (1.5 μg/kg Dexmedetomidine I.V.)
[12] = individual animals, Dose 1 (5.14 μg/kg Dexmedetomidine SL)
[13] = individual animals, Dose 2 (10 μg/kg Dexmedetomidine SL)
[14] = individual animals, Dose 3 (20 μg/kg Dexmedetomidine SL)
[15] = individual animals, Dose 4 (30 μg/kg Dexmedetomidine SL)
[16] = individual animals, Dose 5 (40 μg/kg Dexmedetomidine SL)
[17] = individual animals, Dose 6 (1.5 μg/kg Dexmedetomidine I.V.)
[18] = parenteral dexmedetomidine (1.5 μg/kg, p.o.), compared to vehicle control

Cc1ccc(-c2nc3ccc(C)cn3c2CC(=O)N(C)C)cc1 [Zolpidem]
Latency to Sleep (Mean and SEM) [1]: 27.0 | Number of Sleep Episodes (Mean and SEM) [1]: 3.83 | Total sleep time normalized to vehicle [1]: 183.8 | Total Sleep Time (total duration of sleep in 180 min.), result in words (Zolpidem at the standard dose, compared to NC and Vehicle control): significant increase | Latency to Sleep (Time of sleep onset), result in words (Zolpidem, compared to normal and vehicle control): reduction in the sleep latency | Latency to Sleep [2]: 27.00 | Number of Sleep Episodes [2]: 3.83 | Total Sleep time Normalized to Vehicle* [2]: 183.82 | Total Sleep time [2]: 87.00 min | Latency to Sleep [3]: 24 (2×) and 28 and 26 and 23 and 37 | Number of Sleep Episodes [3]: 3 (3×) and 6 and 4 (2×) | Total Sleep time Normalized to Vehicle* [3]: 247 and 260 and 167 and 205 and 114 and 110 | Total Sleep time [3]: 117 min and 123 min and 79 min and 97 min and 54 min and 52 min

Cc1cccc([C@H](C)c2cnc[nH]2)c1C [Dexmedetomidine, 5-[(1 S)-1-(2,3-dimethylphenyl)ethyl]-1 H-imidazole]
Latency to Sleep (Mean and SEM) [4]: 63.2 | Number of Sleep Episodes (Mean and SEM) [4]: 2.33 | Total Sleep Time (Mean and SEM) [4]: 100.7 | Latency to Sleep (Mean and SEM) (Table 2, Dose 2 (10 μg/kg, SL)): 21.0 | Number of Sleep Episodes (Mean and SEM) (Table 2, Dose 2 (10 μg/kg, SL)): 4.50 | Total Sleep Time (Mean and SEM) (Table 2, Dose 2 (10 μg/kg, SL)): 130.1 | Latency to Sleep (Mean and SEM) (Table 2, Dose 3 (20 μg/kg, SL)): 12.7 | Number of Sleep Episodes (Mean and SEM) (Table 2, Dose 3 (20 μg/kg, SL)): 4.00 | Total Sleep Time (Mean and SEM) (Table 2, Dose 3 (20 μg/kg, SL)): 150.2 | Latency to Sleep (Mean and SEM) (Table 2, Dose 4 (30 μg/kg, SL)): 13.2 | Number of Sleep Episodes (Mean and SEM) (Table 2, Dose 4 (30 μg/kg, SL)): 2.50 | Total Sleep Time (Mean and SEM) (Table 2, Dose 4 (30 μg/kg, SL)): 143.1 | Latency to Sleep (Mean and SEM) (Table 2, Dose 5 (40 μg/kg, SL)): 16.7 | Number of Sleep Episodes (Mean and SEM) (Table 2, Dose 5 (40 μg/kg, SL)): 2.67 | Total Sleep Time (Mean and SEM) (Table 2, Dose 5 (40 μg/kg, SL)): 169.7 | Latency to Sleep (Mean and SEM) [5]: 25.4 | Number of Sleep Episodes (Mean and SEM) [5]: 2.33 | Total Sleep Time (Mean and SEM) [5]: 137 | Latency to Sleep (Time of sleep onset), result in words (dexmedetomidine dosed sublingually at 10, 20, 30 & 40 μg/kg, compared to vehicle control): significantly lowered; also recorded: significantly reduced | Number of sleep episodes, result in words (dexmedetomidine dosed sublingually, from 10, 20, 30 & 40 μg/kg, compared to vehicle control): gradually decreased | Latency to Sleep [6]: 63.17 | Number of Sleep Episodes [6]: 2.33 | Total Sleep time Normalized to Vehicle* [6]: 100.71 | Total Sleep time [6]: 47.67 min | Latency to Sleep [7]: 21.00 | Number of Sleep Episodes [7]: 4.50 | Total Sleep time Normalized to Vehicle* [7]: 130.13 | Total Sleep time [7]: 103.67 min | Latency to Sleep [8]: 12.67 | Number of Sleep Episodes [8]: 4.00 | Total Sleep time Normalized to Vehicle* [8]: 150.21 | Total Sleep time [8]: 119.67 min | Latency to Sleep [9]: 13.17 | Number of Sleep Episodes [9]: 2.50 | Total Sleep time Normalized to Vehicle* [9]: 143.10 | Total Sleep time [9]: 114.00 min | Latency to Sleep [10]: 16.67 | Number of Sleep Episodes [10]: 2.67 | Total Sleep time Normalized to Vehicle* [10]: 169.67 | Total Sleep time [10]: 135.17 min | Latency to Sleep [11]: 25.40 | Number of Sleep Episodes [11]: 2.33 | Total Sleep time Normalized to Vehicle* [11]: 136.98 | Total Sleep time [11]: 64.83 min | Latency to Sleep [12]: 97 and 101 and 87 and 94 and 0 (2×) | Number of Sleep Episodes [12]: 2 (2×) and 5 (2×) and 0 (2×) | Total Sleep time Normalized to Vehicle* [12]: 184 and 203 and 125 and 93 and 0 (2×) | Total Sleep time [12]: 87 min and 96 min and 59 min and 44 min and 0 min (2×) | Latency to Sleep [13]: 18 (2×) and 29 and 21 and 24 and 16 | Number of Sleep Episodes [13]: 5 (4×) and 4 and 3 | Total Sleep time Normalized to Vehicle* [13]: 128 and 102 and 108 and 141 and 152 and 151 | Total Sleep time [13]: 102 min and 81 min and 86 min and 112 min and 121 min and 120 min | Latency to Sleep [14]: 15 (2×) and 12 and 13 and 10 and 11 | Number of Sleep Episodes [14]: 5 and 3 and 4 (4×) | Total Sleep time Normalized to Vehicle* [14]: 133 and 174 and 143 and 142 and 181 and 128 | Total Sleep time [14]: 106 min and 139 min and 114 min and 113 min and 144 min and 102 min | Latency to Sleep [15]: 11 (2×) and 23 and 8 and 10 and 16 | Number of Sleep Episodes [15]: 4 and 2 (4×) and 3 | Total Sleep time Normalized to Vehicle* [15]: 162 and 127 and 158 (2×) and 136 and 118 | Total Sleep time [15]: 129 min and 101 min and 126 min (2×) and 108 min and 94 min | Latency to Sleep [16]: 16 (2×) and 17 and 18 and 13 and 20 | Number of Sleep Episodes [16]: 2 (3×) and 4 and 3 (2×) | Total Sleep time Normalized to Vehicle* [16]: 181 and 134 and 186 and 190 and 159 and 168 | Total Sleep time [16]: 144 min and 107 min and 148 min and 151 min and 127 min and 134 min | Latency to Sleep [17]: 18 and 27 and 26 and 24 and 85 and 32 | Number of Sleep Episodes [17]: 3 (3×) and 1 and 2 (2×) | Total Sleep time Normalized to Vehicle* [17]: 180 and 184 and 95 and 129 and 177 and 57 | Total Sleep time [17]: 85 min and 87 min and 45 min and 61 min and 84 min and 27 min | Latency to Sleep (Time of sleep onset), result in words [18]: significantly lowered | Number of sleep episodes, result in words [18]: gradually decreased | Total sleep time, result in words (sublingual dexmedetomidine at dose range of 10 to 40 μg/kg): no significant increase; also recorded: not significantly affecting | Total Sleep Time (total duration of sleep in 180 min.), result in words (sublingual dexmedetomidine, 40 μg/kg): significant increase
